Test results from patent US20260250318A1, “COMPOSITIONS AND METHODS FOR CROSSING THE BLOOD BRAIN BARRIER” (VOYAGER THERAPEUTICS, INC., priority 2022, published 2026).

Experiments:
Details in all cases: synthetic library passage 3, intravenous, relative to wild-type AAV9
brain [1] = test: NGS fold enrichment of synthetic library (passage 3) in BALB/c mice, first cross-species screen; assay type: in vivo
Procedure: (§1) After creation of the synthetic library with the sub-selected variants, the synthetic library was screened (passage 3) in two NHPs (2-4 years of age) and two strains of mice, BALB/c (n=3, 6-8 weeks of age) and C57Bl/6 mice (n=3, 6-8 weeks of age), in a first cross-species evolution screen. The animals were injected intravenously with the synthetic library. After a period in vivo, (e.g., 28-days) RNA was extracted from nervous tissue, e.g., brain, spinal cord, and DRG of the NHPs and the brains of mice. Following RNA recovery and RT-PCR amplification, a systematic NGS enrichment analysis was performed, and the peptides comprised within the variants were identified and the capsid enrichment ratio for each variant compared to the wild-type AAV9 control was calculated (fold enrichment relative to wild-type AAV9) (Table 9). […] All animals were dosed intravenously at […] across the screen.

brain [2] = test: NGS fold enrichment of synthetic library (passage 3) in C57Bl/6 mice, first cross-species screen; assay type: in vivo
Procedure: as §1

[3] = test system: brain, spinal cord, and DRG of the NHPs; test: NGS fold enrichment of synthetic library (passage 3) in NHPs, first cross-species screen; assay type: in vivo, cynomolgus macaques (Macaca fascicularis)
Procedure: as §1

[4] = RNA from brain of BALB/c mice, NGS
[5] = RNA from brain of C57Bl/6 mice, NGS
[6] = RNA from spinal cord of NHPs, NGS

GILLATPSGQNQQT
Fold enrichment over AAV9 in the brain of Mice (BALB/c) (brain [1]; RNA NGS, brain of BALB/c mice): 0.288 fold
Fold enrichment over AAV9 in the brain of Mice (C57Bl/6) (brain [2]; RNA NGS, brain of C57Bl/6 mice): 1.341 fold
Fold enrichment over AAV9 in the brain of NHPs ([3]; RNA NGS, brain of NHPs): 1.931 fold
Fold enrichment over AAV9 in the spinal cord of NHPs ([3]; RNA NGS, spinal cord of NHPs): 8.205 fold

GIMARDSSGQNQQT
Fold enrichment over AAV9 in the brain of Mice (BALB/c) (brain [1]; RNA NGS, brain of BALB/c mice): 0.904 fold
Fold enrichment over AAV9 in the brain of Mice (C57Bl/6) (brain [2]; RNA NGS, brain of C57Bl/6 mice): 1.320 fold
Fold enrichment over AAV9 in the brain of NHPs ([3]; RNA NGS, brain of NHPs): 1.972 fold
Fold enrichment over AAV9 in the spinal cord of NHPs ([3]; RNA NGS, spinal cord of NHPs): 3.486 fold

GIPSIRESGQNQQT
Fold enrichment over AAV9 in the brain of Mice (BALB/c) (brain [1]; [4]): 0.254 fold
Fold enrichment over AAV9 in the brain of Mice (C57Bl/6) (brain [2]; [5]): 0.484 fold
Fold enrichment over AAV9 in the brain of NHPs ([3]; RNA from brain of NHPs, NGS): 1.282 fold
Fold enrichment over AAV9 in the spinal cord of NHPs [3, 6]: 0.166 fold

GKPAGGLSGQNQQT
Fold enrichment over AAV9 in the brain of Mice (BALB/c) (brain [1]; RNA NGS, brain of BALB/c mice): 0.739 fold
Fold enrichment over AAV9 in the brain of Mice (C57Bl/6) (brain [2]; RNA NGS, brain of C57Bl/6 mice): 0.708 fold
Fold enrichment over AAV9 in the brain of NHPs ([3]; RNA NGS, brain of NHPs): 1.085 fold
Fold enrichment over AAV9 in the spinal cord of NHPs ([3]; RNA NGS, spinal cord of NHPs): 2.805 fold

GKSFVPQSGQNQQT
Fold enrichment over AAV9 in the brain of Mice (BALB/c) (brain [1]; RNA NGS, brain of BALB/c mice): 0.430 fold
Fold enrichment over AAV9 in the brain of Mice (C57Bl/6) (brain [2]; RNA NGS, brain of C57Bl/6 mice): 1.798 fold
Fold enrichment over AAV9 in the brain of NHPs ([3]; RNA NGS, brain of NHPs): 1.489 fold
Fold enrichment over AAV9 in the spinal cord of NHPs ([3]; RNA NGS, spinal cord of NHPs): 2.502 fold

GLAGHTVSGQNQQT
Fold enrichment over AAV9 in the brain of Mice (BALB/c) (brain [1]; RNA NGS, brain of BALB/c mice): 0.202 fold
Fold enrichment over AAV9 in the brain of Mice (C57Bl/6) (brain [2]; RNA NGS, brain of C57Bl/6 mice): 0.972 fold
Fold enrichment over AAV9 in the brain of NHPs ([3]; RNA NGS, brain of NHPs): 3.632 fold
Fold enrichment over AAV9 in the spinal cord of NHPs ([3]; RNA NGS, spinal cord of NHPs): 0.229 fold

GLAHKTSSGQNQQT
Fold enrichment over AAV9 in the brain of Mice (BALB/c) (brain [1]; RNA NGS, brain of BALB/c mice): 0.690 fold
Fold enrichment over AAV9 in the brain of Mice (C57Bl/6) (brain [2]; RNA NGS, brain of C57Bl/6 mice): 0.427 fold
Fold enrichment over AAV9 in the brain of NHPs ([3]; RNA NGS, brain of NHPs): 1.106 fold
Fold enrichment over AAV9 in the spinal cord of NHPs ([3]; RNA NGS, spinal cord of NHPs): 0.915 fold

GLGAYQSSGQNQQT
Fold enrichment over AAV9 in the brain of Mice (BALB/c) (brain [1]; RNA NGS, brain of BALB/c mice): 0.688 fold
Fold enrichment over AAV9 in the brain of Mice (C57Bl/6) (brain [2]; RNA NGS, brain of C57Bl/6 mice): 1.407 fold
Fold enrichment over AAV9 in the brain of NHPs ([3]; RNA NGS, brain of NHPs): 1.574 fold
Fold enrichment over AAV9 in the spinal cord of NHPs ([3]; RNA NGS, spinal cord of NHPs): 0.696 fold

GLGSKNHSGQNQQT
Fold enrichment over AAV9 in the brain of Mice (BALB/c) (brain [1]; [4]): 0.224 fold
Fold enrichment over AAV9 in the brain of Mice (C57Bl/6) (brain [2]; [5]): 0.825 fold
Fold enrichment over AAV9 in the brain of NHPs ([3]; RNA from brain of NHPs, NGS): 1.187 fold
Fold enrichment over AAV9 in the spinal cord of NHPs [3, 6]: 5.046 fold

GLGSKNPSGQNQQT
Fold enrichment over AAV9 in the brain of Mice (BALB/c) (brain [1]; [4]): 0.424 fold
Fold enrichment over AAV9 in the brain of Mice (C57Bl/6) (brain [2]; [5]): 1.184 fold
Fold enrichment over AAV9 in the brain of NHPs ([3]; RNA from brain of NHPs, NGS): 1.147 fold
Fold enrichment over AAV9 in the spinal cord of NHPs [3, 6]: 1.629 fold

GLGYPGSSGQNQQT
Fold enrichment over AAV9 in the brain of Mice (BALB/c) (brain [1]; RNA NGS, brain of BALB/c mice): 0.577 fold
Fold enrichment over AAV9 in the brain of Mice (C57Bl/6) (brain [2]; RNA NGS, brain of C57Bl/6 mice): 0.929 fold
Fold enrichment over AAV9 in the brain of NHPs ([3]; RNA NGS, brain of NHPs): 1.763 fold
Fold enrichment over AAV9 in the spinal cord of NHPs ([3]; RNA NGS, spinal cord of NHPs): 7.090 fold

GLHGMTLSGQNQQT
Fold enrichment over AAV9 in the brain of Mice (BALB/c) (brain [1]; [4]): 0.338 fold
Fold enrichment over AAV9 in the brain of Mice (C57Bl/6) (brain [2]; [5]): 0.470 fold
Fold enrichment over AAV9 in the brain of NHPs ([3]; RNA from brain of NHPs, NGS): 1.226 fold
Fold enrichment over AAV9 in the spinal cord of NHPs [3, 6]: 3.552 fold

GLLAGKSSGQNQQT
Fold enrichment over AAV9 in the brain of Mice (BALB/c) (brain [1]; RNA NGS, brain of BALB/c mice): 0.946 fold
Fold enrichment over AAV9 in the brain of Mice (C57Bl/6) (brain [2]; RNA NGS, brain of C57Bl/6 mice): 0.999 fold
Fold enrichment over AAV9 in the brain of NHPs ([3]; RNA NGS, brain of NHPs): 1.491 fold
Fold enrichment over AAV9 in the spinal cord of NHPs ([3]; RNA NGS, spinal cord of NHPs): 2.981 fold

GLNHFGASGQNQQT
Fold enrichment over AAV9 in the brain of Mice (BALB/c) (brain [1]; RNA NGS, brain of BALB/c mice): 0.579 fold
Fold enrichment over AAV9 in the brain of Mice (C57Bl/6) (brain [2]; RNA NGS, brain of C57Bl/6 mice): 0.774 fold
Fold enrichment over AAV9 in the brain of NHPs ([3]; RNA NGS, brain of NHPs): 3.802 fold
Fold enrichment over AAV9 in the spinal cord of NHPs ([3]; RNA NGS, spinal cord of NHPs): 3.188 fold

GLRLSTPSGQNQQT
Fold enrichment over AAV9 in the brain of Mice (BALB/c) (brain [1]; RNA NGS, brain of BALB/c mice): 0.522 fold
Fold enrichment over AAV9 in the brain of Mice (C57Bl/6) (brain [2]; RNA NGS, brain of C57Bl/6 mice): 0.804 fold
Fold enrichment over AAV9 in the brain of NHPs ([3]; RNA NGS, brain of NHPs): 1.498 fold
Fold enrichment over AAV9 in the spinal cord of NHPs ([3]; RNA NGS, spinal cord of NHPs): 4.334 fold

GLSAEKSSGQNQQT
Fold enrichment over AAV9 in the brain of Mice (BALB/c) (brain [1]; RNA NGS, brain of BALB/c mice): 0.303 fold
Fold enrichment over AAV9 in the brain of Mice (C57Bl/6) (brain [2]; RNA NGS, brain of C57Bl/6 mice): 0.629 fold
Fold enrichment over AAV9 in the brain of NHPs ([3]; RNA NGS, brain of NHPs): 1.047 fold
Fold enrichment over AAV9 in the spinal cord of NHPs ([3]; RNA NGS, spinal cord of NHPs): 7.203 fold
